Consider one compound from patent publication US9718800B2, “Chromenone derivatives” (AstraZeneca AB, priority 2009, dated 2017).

The target in the assay is PI3Kβ (Homo sapiens (Human), UniProt P42338). The assay is described as follows: In vitro enzyme inhibition assay (Kinase Glo based enzyme activity assay). It is filed as biochemical. Particulars: Test (a), Table A. As for the experimental part: (a) In Vitro Enzyme Inhibition Assay
The inhibition of PI3Kβ, PI3Kα, PI3Kγ and PI3Kδ was evaluated in a Kinase Glo based enzyme activity assay using human recombinant enzymes. The assay measures depletion of ATP after incubation with enzyme, PIP2 and ATP plus compound. ATP at the end of the reaction is detected by addition of Kinase Glo reagent, in this the Ultra Glo™ luciferase (Promega) uses the ATP as a substrate to catalyze the mono-oxygenation of luciferin and the generation of light. A direct relationship exists between the luminescence measured with the Kinase-Glo Plus Reagent and the amount of ATP remaining in a completed kinase reaction and luminescence is inversely related to kinase activity.
Compounds in 100% DMSO were added to assay plates by acoustic dispensing. PI3Kβ was added in a Tris buffer (50 mM Tris pH7.4, 0.05% CHAPS, 2.1 mM DTT, and 10 mM MgCl2) and allowed to preincubate with compound for 20 minutes prior to addition of substrate solution containing PIP2 and ATP. The enzyme reaction was stopped after 80 minutes by the addition of Kinase Glo detection solution. Plates were left for 30 minutes at room temperature then read on a Pherastar Instrument (Luminescence ATP 384 program) setting gain on max well. […]
IC50 values were calculated using a log curve fitting to a non-linear regression package, fitting raw data to inhibitor concentration.

Molecules are shown by their SMILES. pIC50: −log10 of the molar value.

Chain of PI3Kβ (P42338 whole entry): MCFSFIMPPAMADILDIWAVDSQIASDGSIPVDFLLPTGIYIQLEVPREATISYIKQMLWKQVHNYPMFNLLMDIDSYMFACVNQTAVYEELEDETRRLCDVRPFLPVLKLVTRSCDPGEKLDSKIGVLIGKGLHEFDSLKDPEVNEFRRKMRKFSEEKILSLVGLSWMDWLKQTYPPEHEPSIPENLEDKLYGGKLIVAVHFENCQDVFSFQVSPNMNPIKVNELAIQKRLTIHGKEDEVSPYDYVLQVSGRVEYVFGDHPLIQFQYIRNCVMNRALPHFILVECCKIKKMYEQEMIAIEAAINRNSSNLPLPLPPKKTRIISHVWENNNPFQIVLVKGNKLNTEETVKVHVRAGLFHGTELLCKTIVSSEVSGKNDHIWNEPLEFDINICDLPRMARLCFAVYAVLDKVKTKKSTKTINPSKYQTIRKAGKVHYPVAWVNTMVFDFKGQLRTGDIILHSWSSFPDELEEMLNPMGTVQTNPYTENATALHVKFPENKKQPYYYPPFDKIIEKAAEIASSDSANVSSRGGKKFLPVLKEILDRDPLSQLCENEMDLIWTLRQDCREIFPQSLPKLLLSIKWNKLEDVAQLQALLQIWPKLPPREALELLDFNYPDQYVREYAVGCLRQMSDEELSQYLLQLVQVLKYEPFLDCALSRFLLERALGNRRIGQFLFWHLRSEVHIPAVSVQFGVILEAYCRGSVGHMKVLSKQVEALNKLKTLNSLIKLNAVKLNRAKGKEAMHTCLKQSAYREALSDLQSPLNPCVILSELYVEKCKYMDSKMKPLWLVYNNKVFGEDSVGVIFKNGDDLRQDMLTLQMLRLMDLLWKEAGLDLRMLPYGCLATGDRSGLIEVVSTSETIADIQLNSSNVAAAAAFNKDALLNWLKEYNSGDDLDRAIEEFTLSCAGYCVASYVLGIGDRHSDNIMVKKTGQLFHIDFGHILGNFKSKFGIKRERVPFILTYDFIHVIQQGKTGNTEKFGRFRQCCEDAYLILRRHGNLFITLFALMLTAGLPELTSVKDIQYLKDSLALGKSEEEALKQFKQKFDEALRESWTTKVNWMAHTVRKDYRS
Chain of PI3Kβ (P27986 whole entry partner): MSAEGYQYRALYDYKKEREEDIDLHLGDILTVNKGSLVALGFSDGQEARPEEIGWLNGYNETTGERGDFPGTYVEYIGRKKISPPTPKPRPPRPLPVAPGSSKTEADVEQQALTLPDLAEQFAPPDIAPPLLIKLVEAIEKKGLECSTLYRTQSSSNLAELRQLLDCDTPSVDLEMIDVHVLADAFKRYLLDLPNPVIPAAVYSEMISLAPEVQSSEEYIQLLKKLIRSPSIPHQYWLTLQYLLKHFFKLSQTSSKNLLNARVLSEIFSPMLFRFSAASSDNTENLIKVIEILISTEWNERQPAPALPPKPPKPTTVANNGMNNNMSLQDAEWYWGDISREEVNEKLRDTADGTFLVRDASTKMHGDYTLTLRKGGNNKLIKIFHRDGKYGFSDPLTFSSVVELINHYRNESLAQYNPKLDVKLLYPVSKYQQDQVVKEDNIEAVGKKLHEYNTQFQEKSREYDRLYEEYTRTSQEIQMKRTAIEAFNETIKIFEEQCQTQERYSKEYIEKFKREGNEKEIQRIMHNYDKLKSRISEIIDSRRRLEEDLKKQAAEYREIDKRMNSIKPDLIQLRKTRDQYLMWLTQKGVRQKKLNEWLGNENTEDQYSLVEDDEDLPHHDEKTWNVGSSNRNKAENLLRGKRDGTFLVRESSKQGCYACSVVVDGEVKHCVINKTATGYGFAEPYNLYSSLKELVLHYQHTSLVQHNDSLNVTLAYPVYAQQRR

The compound `CC(c1cc(C(=O)NCCN(C)C)cc2c(=O)cc(N3CCOCC3)oc12)N(C)c1ccc(F)c(F)c1` (stereo not shown) [Example 3.01, 8-(1-((3,4-difluorophenyl)(methyl)amino)ethyl)-N-(2-(dimethylamino)ethyl)-2-morpholino-4-oxo-4H-chromene-6-carboxamide] had a pIC50 of 8.22.
